Test results: patent publication US6737383B1, “Herbicidal oxadiazolidines” (priority 1999, dated 2004)

How the values were obtained:
[1] = tested on: Pioneer hybrid P33G26 corn; assay: Test H corn injury, herbicide and safener mixtures applied to soil; settings: in vivo
Experimental: Mixtures of the herbicide and safeners were applied to pots of a soil mixture previously sown with corn. Pioneer hybrid P33G26 corn was sown in pots containing a sterile mix of 60% sassafras soil and 40% Metro Mix 360® growing medium (pH 6.7, O.M. 2%). Test compounds were dissolved in AGWT (a mixture of 0.25% Tween 20 surfactant, 5% water, 5% glycerin and 89.75% acetone) and sprayed on the soil as pots passed under a stationary 8002E nozzle. Treatments were applied at a 33 gal/acre rate of the AGWT carrier. After treatment, the test pots were placed in the greenhouse and watered. There were two replications for each treatment. Each pot contained eight corn seeds. The pots within each replication were placed in random positions on greenhouse benches. Test plants were fertilized as they were watered with approximately 200 ppm of N (as water soluble 20-20-20 fertilizer) which was metered into the water lines with a fertilizer injector. Daytime temperatures was 23-30° C. and night time temperature was 18-25° C. The test plants were supplemented with artificial lighting. The lights were activated whenever the natural light intensity dropped below the programmed threshold. Day length was maintained for approximately 14 hours.
The test was evaluated approximately 12 days after treatment. […]

[2] = tested on: bedstraw; assay: Test B pre/postemergence bedstraw; type: in vivo, Galium aparine; settings: Preemergence
Method in brief: (§1)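 Response is a visual 0-to-10 score relative to untreated plants, where 0 means no effect and 10 means complete control, taken twelve to sixteen days after application. Treatments went onto soil at planting and onto foliage of 1- to 4-leaf plants, using a surfactant-containing non-phytotoxic solvent.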

[3] = tested on: duck salad; assay: Test B flood test duck salad; type: in vivo, Heteranthera limosa
Method in brief: (§2)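 Read-out is a visual response score from 0 (no effect) to 10 (complete control), assigned by comparison with untreated controls. Treatment was applied at the 2-leaf stage, and plants stayed in the greenhouse for twelve to sixteen days before scoring.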

[4] = tested on: purple nutsedge; assay: Test B pre/postemergence purple nutsedge; type: in vivo, Cyperus rotundus; settings: Preemergence
Method in brief: as §1

[5] = tested on: sugar beet; assay: Test B pre/postemergence sugar beet; type: in vivo, Beta vulgaris; settings: Preemergence
Method in brief: as §1

[6] = tested on: soybean; assay: Test B pre/postemergence soybean; type: in vivo, Glycine max; settings: Preemergence
Method in brief: as §1

[7] = tested on: corn; assay: Test B pre/postemergence corn; type: in vivo, Zea mays; settings: Preemergence
Method in brief: as §1

[8] = tested on: giant foxtail; assay: Test B pre/postemergence giant foxtail; type: in vivo, Setaria faberii; settings: Preemergence
Method in brief: as §1

[9] = tested on: smallflower flatsedge; assay: Test B flood test smallflower flatsedge; type: in vivo, Cyperus difformis
Method in brief: as §2

[10] = tested on: surinam grass; assay: Test B pre/postemergence surinam grass; type: in vivo, Brachiaria decumbens; settings: Preemergence
Method in brief: as §1

[11] = tested on: crabgrass; assay: Test B pre/postemergence crabgrass; type: in vivo, Digitaria sanguinalis; settings: Preemergence
Method in brief: as §1

[12] = tested on: cocklebur; assay: Test B pre/postemergence cocklebur; type: in vivo, Xanthium strumarium; settings: Preemergence
Method in brief: as §1

[13] = tested on: velvetleaf; assay: Test B pre/postemergence velvetleaf; type: in vivo, Abutilon theophrasti; settings: Preemergence
Method in brief: as §1

[14] = tested on: bamyardgrass; assay: Test B flood test barnyardgrass; type: in vivo, Echinochloa crus-galli
Method in brief: as §2

[15] = tested on: rape; assay: Test B pre/postemergence rape; type: in vivo, Brassica napus; settings: Preemergence
Method in brief: as §1

[16] = tested on: morningglory; assay: Test B pre/postemergence morningglory; type: in vivo, Ipomoea hederacea; settings: Preemergence
Method in brief: as §1

[17] = tested on: rice; assay: Test B flood test rice; type: in vivo, Oryza sativa
Method in brief: as §2

[18] = tested on: pigweed; assay: Test B pre/postemergence pigweed; type: in vivo, Amaranthus retroflexus; settings: Preemergence
Method in brief: as §1

[19] = tested on: blackgrass; assay: Test B pre/postemergence blackgrass; type: in vivo, Alopecurus myosuroides; settings: Preemergence
Method in brief: as §1

[20] = tested on: wheat; assay: Test B pre/postemergence wheat; type: in vivo, Triticum aestivum; settings: Preemergence
Method in brief: as §1

[21] = tested on: wild oat; assay: Test B pre/postemergence wild oat; type: in vivo, Avena fatua; settings: Preemergence
Method in brief: as §1

[22] = Rate 62 g/ha, scale of 0 to 10 where 0 is no effect and 10 is complete control
[23] = Rate 125 g/ha, scale of 0 to 10 where 0 is no effect and 10 is complete control
[24] = Rate 250 g/ha, scale 0 (no effect) to 10 (complete control)
[25] = Rate 500 g/ha, scale 0 to 10 (0 no effect, 10 complete control)
[26] = Pre-emergence, Rate 62 g/ha, scale 0 to 10, 0 is no effect, 10 is complete control
[27] = Rate 125 g/ha, Pre-emergence section (flood test species), scale 0 to 10, 0 no effect, 10 complete control
[28] = Rate 250 g/ha, Pre-emergence (flood test species), scale 0 to 10, 0 is no effect, 10 is complete control
[29] = Rate 500 g/ha, Pre-emergence section of Table B, 0 to 10 scale (0 no effect, 10 complete control)

With `CC1COc2ccccc2N1C(=O)C(Cl)Cl` (stereo not drawn) [benoxacor] the “Safening of Compound 113 on corn” value [1] was “functioned very effectively as safeners”.

With `CC(C)N(C(=O)n1oc(=O)n(C(C)C2=NOCC2)c1=O)c1ccc(F)cc1` (racemic) [Compound 721] the “Bedstraw plant response rating” value [2, 22] was 3, the “Plant response rating, Bedstraw” value [2, 23] was 10 and the “Bedstraw plant response rating” value [2, 24] was 10. The “Bedstraw plant response rating” value [2, 25] was 10, the “Ducksalad plant response rating” value [3, 26] was 0 and the “Ducksalad plant response rating” value [3, 27] was 0. The “Ducksalad plant response rating” value [3, 28] was 0, the “Ducksalad plant response rating” value [3, 29] was 0 and the “Nutsedge plant response rating” value [4, 22] was 0. For the same compound, the “Plant response rating, Nutsedge” value [4, 23] was 0, the “Nutsedge plant response rating” value [4, 24] was 0 and the “Nutsedge plant response rating” value [4, 25] was 3. The “Sugarbeets plant response rating” value [5, 22] was 3, the “Plant response rating, Sugarbeets” value [5, 23] was 7 and the “Sugarbeets plant response rating” value [5, 24] was 7. For the same compound, the “Sugarbeets plant response rating” value [5, 25] was 8, the “Soybean plant response rating” value [6, 22] was 0 and the “Plant response rating, Soybean” value [6, 23] was 0. The “Soybean plant response rating” value [6, 24] was 0, the “Soybean plant response rating” value [6, 25] was 7 and the “Corn plant response rating” value [7, 22] was 0. The “Plant response rating, Corn” value [7, 23] was 3, the “Corn plant response rating” value [7, 24] was 5 and the “Corn plant response rating” value [7, 25] was 8. For the same compound, the “Giant foxtail plant response rating” value [8, 22] was 9, the “Plant response rating, Giant foxtail” value [8, 23] was 10 and the “Giant foxtail plant response rating” value [8, 24] was 10. The “Giant foxtail plant response rating” value [8, 25] was 10, the “S. Flatsedge plant response rating” value [9, 26] was 0 and the “S. Flatsedge plant response rating” value [9, 27] was 0. The “S. Flatsedge plant response rating” value [9, 28] was 0, the “S. Flatsedge plant response rating” value [9, 29] was 0 and the “B. signalgrass plant response rating” value [10, 22] was 7. The “Plant response rating, B. signalgrass” value [10, 23] was 8, the “B. signalgrass plant response rating” value [10, 24] was 8 and the “B. signalgrass plant response rating” value [10, 25] was 10. The “Crabgrass plant response rating” value [11, 22] was 9, the “Plant response rating, Crabgrass” value [11, 23] was 9 and the “Crabgrass plant response rating” value [11, 24] was 9. The “Crabgrass plant response rating” value [11, 25] was 9, the “Cocklebur plant response rating” value [12, 22] was 0 and the “Plant response rating, Cocklebur” value [12, 23] was 0. The “Cocklebur plant response rating” value [12, 24] was 2, the “Cocklebur plant response rating” value [12, 25] was 2 and the “Velvetleaf plant response rating” value [13, 22] was 0. For the same compound, the “Plant response rating, Velvetleaf” value [13, 23] was 5, the “Velvetleaf plant response rating” value [13, 24] was 8 and the “Velvetleaf plant response rating” value [13, 25] was 10. For the same compound, the “Barnyardgrass plant response rating” value [14, 26] was 0, the “Barnyardgrass plant response rating” value [14, 27] was 0 and the “Barnyardgrass plant response rating” value [14, 28] was 0. The “Barnyardgrass plant response rating” value [14, 29] was 0, the “Rape plant response rating” value [15, 22] was 1 and the “Plant response rating, Rape” value [15, 23] was 9. For the same compound, the “Rape plant response rating” value [15, 24] was 9, the “Rape plant response rating” value [15, 25] was 10 and the “Morningglory plant response rating” value [16, 22] was 1. For the same compound, the “Plant response rating, Morningglory” value [16, 23] was 2, the “Morningglory plant response rating” value [16, 24] was 2 and the “Morningglory plant response rating” value [16, 25] was 5. For the same compound, the “Rice plant response rating” value [17, 26] was 0, the “Rice plant response rating” value [17, 27] was 0 and the “Rice plant response rating” value [17, 28] was 0. For the same compound, the “Rice plant response rating” value [17, 29] was 0, the “Redroot pigweed plant response rating” value [18, 22] was 9 and the “Plant response rating, Redroot pigweed” value [18, 23] was 10. For the same compound, the “Redroot pigweed plant response rating” value [18, 24] was 10, the “Redroot pigweed plant response rating” value [18, 25] was 10 and the “Blackgrass plant response rating” value [19, 22] was 9. The “Plant response rating, Blackgrass” value [19, 23] was 10, the “Blackgrass plant response rating” value [19, 24] was 10 and the “Blackgrass plant response rating” value [19, 25] was 10. For the same compound, the “Wheat plant response rating” value [20, 22] was 0, the “Plant response rating, Wheat” value [20, 23] was 3 and the “Wheat plant response rating” value [20, 24] was 3. The “Wheat plant response rating” value [20, 25] was 8, the “Wild oats plant response rating” value [21, 22] was 6 and the “Plant response rating, Wild oats” value [21, 23] was 8. For the same compound, the “Wild oats plant response rating” value [21, 24] was 8 and the “Wild oats plant response rating” value [21, 25] was 10.
